Consider 50 compounds from patent publication US5571806A, “Dibenz[b,f][1,4]oxazepin(and thiazepin)-11(10H)-ones and-thiones and their use in the prevention or treatment of HIV infection” (Boehringer Ingelheim Pharmaceuticals, Inc., priority 1994, dated 1996).

The first assay concerns the target T1, HIV-1 reverse transcriptase (Human immunodeficiency virus type 1 group M subtype B, UniProt P03367).
T1 construct: Reverse transcriptase enzyme from the LAV strain of Human Immuno-deficiencyVirus (HIV-1); made in house; host or cells: E. coli JM109 (species of the strain is own knowledge), DNA clone pBRTprtl+ in expression vector pIBI21 (lac promoter)
In words: Reverse Transcriptase (RT) Assay (RNA-dependent DNA polymerase activity). Format: biochemical, Human Immunodeficiency Virus (HIV-1), LAV strain. Particulars: 10 μg/ml; poly r(C)/oligo d(G) template, 60 minutes, room temperature; read-out: RT Inhibition (% @ 10 μg/ml). From the text:
As stated before, the compounds of formula I inhibit the enzymatic activity of HIV-1 RT. Based upon testing of these compounds, as described below, it is known that they inhibit the RNA-dependent DNA polymerase activity of HIV RT.
Utilizing the Reverse Transcriptase (RT) Assay described below, compounds can be tested for their ability to inhibit the RNA-dependent DNA polymerase activity of HIV RT. Certain specific compounds, described in the Examples which appear below, were so tested.
Among the enzymes for which Human Immunodeficiency Virus (HIV-1) encodes is a reverse transcriptase (1), so-named because it transcribes a DNA copy from an RNA template. This activity can be quantitatively measured in a cell-free enzyme assay which has been previously described (2), and is based upon the observation that reverse transcriptase is able to use a synthetic template [poly r(C) primed with oligo d(G)] to transcribe a radio-labelled, acid-precipitable DNA strand utilizing ^3 H-dGTP as a substrate. […]
a) Preparation of the enzyme
Reverse transcriptase enzyme from the LAV strain of Human Immuno-deficiencyVirus (HIV-1) (1) was isolated from the bacterial strain JM109 (3) expressing the DNA clone pBRTprtl+(2) which is under the control of the lac promotor in the expression vector pIBI21 (4). An overnight culture grown in 2XYT medium (37° C., 225 rpm) (5) supplemented with […] ampicillin for positive selection is inoculated at a 1:40 dilution into M9 medium supplemented with 10 mg/ml thiamine, 0.5% casamino acids, and […] ampicillin (5). The culture is incubated (37° C., 225 rpm) until it reaches an OD540 of 0.3-0.4. At that time the repressor inhibitor IPTG (isopropyl b-D-thiogalactopyranoside) is added to 0.5 mM and incubated for 2 additional hours. Bacteria are pelletted, resuspended in a 50 mM Tris, 0.6 mM EDTA, 0.375M NaCl buffer and digested by the addition of lysozyme (1 mg/ml) for 30 minutes on ice. The cells are lysed by the addition to 0.2% NP-40 and brought to 1M NaCl.
After removal of the insoluble debris by centrifugation, the protein is precipitated by the addition of 3 volumes of saturated aqueous ammonium sulfate. The enzyme is pelleted, resuspended in RT buffer (50 mM Tris pH 7.5, 1 mM EDTA, 5 mMDTT, 0.1% NP-40, 0.1M NaCl, and 50% glycerol) and stored at -70° C. for further use. […]
b) Composition of 2X concentrated stock reaction mixture
Stock Reagent 2X Mix Concentration
[poly r(C)/oligo d(G)](5:1)
The 2X concentrated stock reaction mixture is aliquoted and stored at -20° C. The mixture is stable and thawed for use in each assay. This enzyme assay has been adapted to a 96 well microtiter plate system, and has been previously described (6). Tris buffer (50 mM, pH 7.4), vehicle (solvent diluted to match the compound dilution), or compounds in vehicle are dispensed into 96-well microtiter plates (10 μl/well; 3 wells/compound). The HIV RT enzyme is thawed, diluted in 50 mM Tris pH 7.4 so that fifteen μl of diluted enzyme contain 0.001 Unit (one unit is that amount of enzyme to transform 1 micromole of substrate per minute at 25° C.), and 15 μl are dispensed per well. Twenty μl of 0.12-0.5M EDTA are added to the first three wells of the microtiter plate. EDTA chelates the Mg^++ present and prevents reverse transcription. This group serves as background polymerization which is subtracted from all other groups. Twenty-five μl of the 2X reaction mixture are added to all wells and the assay is allowed to incubate at room temperature for 60 minutes. The assay is terminated by precipitating the DNA in each well with 50μl of 10% trichloracetic acid (TCA) in 1% sodium pyrophosphate. The microtiter plate is incubated for 15 minutes at 4° C. and the precipitate is fixed onto #30 glass fiber paper (Schleicher & Schuell) using a Skatron semi-automatic harvester. […]
As for `CCCN1C(=O)c2ccccc2Oc2ccccc21` [Example 1, 10-Propyl-10H-Dibenz[b,f][1,4]Oxazepin-11-One], the inhibition at 10 µg/mL is 100%.

Consider `CC(C)N1C(=O)c2ccccc2Oc2ccccc21` [Example 2, 10-Isopropyl-10H-Dibenz[b,f][1,4]Oxazepin-11-One], for which the inhibition at 10 µg/mL worked out at 100%.

For the compound `CCCN1C(=S)c2ccccc2Oc2ccccc21` [Example 3, 10 -Propyl-10H-Dibenz [b,f][1,4]Oxazepin-11-Thione], the inhibition at 10 µg/mL was 94%.

Regarding `O=C1Nc2ccccc2Sc2ccccc21` [Example 4, Dibenz[b,f][1,4]Thiazepin-11(10H)-One], the inhibition at 10 µg/mL is 43%.

As to `CCCN1C(=O)c2ccccc2Sc2ccccc21` [Example 5, 10-n-Propyl-Dibenz[b,f][1.4]Thiazepin-11(10H)-One], the inhibition at 10 µg/mL came out at 98%.

Consider `O=C1Nc2ccccc2Oc2ccccc21` [Example 7], for which the inhibition at 10 µg/mL came to 22%.

`CCN1C(=O)c2ccccc2Oc2ccccc21` [Example 8]: the inhibition at 10 µg/mL was found to be 100%.

For `C=CCN1C(=O)c2ccccc2Oc2ccccc21` [Example 9], the inhibition at 10 µg/mL stood at 98%.

In the case of `CN1C(=O)c2ccccc2Oc2ccccc21` [Example 10], the inhibition at 10 µg/mL amounted to 93%.

For `C=C(C)CN1C(=O)c2ccccc2Oc2ccccc21` [Example 11], the inhibition at 10 µg/mL was 77%.

Consider `CCC(=O)N1C(=O)c2ccccc2Oc2ccccc21` [Example 12], for which the inhibition at 10 µg/mL was found to be 44%.

Consider `COc1cccc2c1Oc1ccccc1N(CC(N)=O)C2=O` [Example 13], for which the inhibition at 10 µg/mL is 32%.

For the compound `Nc1ccc2c(c1)C(=O)Nc1ccccc1O2` [Example 14], the inhibition at 10 µg/mL came to 85%.

For the compound `NC(=O)CN1C(=O)c2cc(N)ccc2Oc2ccccc21` [Example 15], the inhibition at 10 µg/mL turned out to be 82%.

Regarding `CCN1C(=O)c2cc(N)ccc2Oc2ccccc21` [Example 16], the inhibition at 10 µg/mL worked out at 100%.

On to `Nc1ccc2c(c1)C(=O)Nc1cc(Cl)ccc1O2` [Example 17], for which the inhibition at 10 µg/mL was 67%.

Turning to `Cc1ccc2c(c1)NC(=O)c1cc(N)ccc1O2` [Example 18], the inhibition at 10 µg/mL stood at 71%.

For the compound `CCN1C(=O)c2cc(N)ccc2Oc2ccc(C)cc21` [Example 19], the inhibition at 10 µg/mL was 100%.

Turning to `CCN1C(=O)c2cc(N)ccc2Oc2ccc(Cl)cc21` [Example 20], the inhibition at 10 µg/mL came out at 95%.

For `Nc1ccc2c(c1)Oc1ccccc1C(=O)N2` [Example 21], the inhibition at 10 µg/mL is 3%.

`CN1C(=O)c2cc(N)ccc2Oc2ccccc21` [Example 22]: the inhibition at 10 µg/mL worked out at 99%.

Consider `Nc1ccc2c(c1)Oc1ccccc1NC2=O` [Example 23], for which the inhibition at 10 µg/mL is 25%.

In the case of `CN1C(=O)c2ccccc2Oc2cc(N)ccc21` [Example 24], the inhibition at 10 µg/mL came out at 44%.

On to `CN1C(=O)c2ccc(N)cc2Oc2ccccc21` [Example 25], for which the inhibition at 10 µg/mL is 26%.

In the case of `CNc1ccc2c(c1)C(=O)N(C)c1ccccc1O2` [Example 26], the inhibition at 10 µg/mL was 75%.

On to `C=CCN1C(=O)c2cc(N)ccc2Oc2ccccc21` [Example 27], for which the inhibition at 10 µg/mL was determined as 100%.

`CNc1ccc2c(c1)C(=O)Nc1ccccc1O2` [Example 28]: the inhibition at 10 µg/mL worked out at 30%.

Regarding `Cc1ccc2c(c1)Oc1ccc(N)cc1C(=O)N2` [Example 30], the inhibition at 10 µg/mL is 96%.

In the case of `Cc1ccc2c(c1)Oc1ccccc1C(=O)N2CC(N)=O` [Example 31], the inhibition at 10 µg/mL was 77%.

For `CCOc1ccc2c(c1)Oc1ccccc1C(=O)N2C` [Example 32], the inhibition at 10 µg/mL was found to be 77%.

On to `CCOc1ccc2c(c1)Oc1ccccc1C(=O)N2CC` [Example 33], for which the inhibition at 10 µg/mL was 74%.

Regarding `CSCN1C(=O)c2ccccc2Oc2ccccc21` [Example 34], the inhibition at 10 µg/mL came to 100%.

Regarding `C[S+]([O-])CN1C(=O)c2ccccc2Oc2ccccc21` (stereo not drawn) [Example 35], the inhibition at 10 µg/mL was found to be 58%.

Take `CSCCN1C(=O)c2ccccc2Oc2ccccc21` [Example 36]: the inhibition at 10 µg/mL stood at 85%.

For the compound `CSCN1C(=O)c2ccc(Cl)cc2Oc2ccccc21` [Example 37], the inhibition at 10 µg/mL was 98%.

Consider `CSCCN1C(=O)c2ccc(Cl)cc2Oc2ccccc21` [Example 38], for which the inhibition at 10 µg/mL was 83%.

For the compound `CSCCN1C(=O)c2ccccc2Oc2cc(C)ccc21` [Example 39], the inhibition at 10 µg/mL came to 95%.

Turning to `Cc1ccc2c(c1)Oc1ccccc1C(=O)N2C[S+](C)[O-]` (stereo not drawn) [Example 40], the inhibition at 10 µg/mL was 77%.

Consider `CSCCN1C(=O)c2cc(Cl)ccc2Oc2ccccc21` [Example 41], for which the inhibition at 10 µg/mL worked out at 49%.

As for `CCOc1ccc2c(c1)Oc1ccccc1C(=O)N2` [Example 42], the inhibition at 10 µg/mL was 30%.

In the case of `CCOC(=O)CN1C(=O)c2ccccc2Oc2ccccc21` [Example 43], the inhibition at 10 µg/mL is 76%.

On to `COc1ccc2c(c1)Oc1ccccc1C(=O)N2` [Example 44], for which the inhibition at 10 µg/mL turned out to be 27%.

Turning to `COc1ccc2c(c1)Oc1cccc(OC)c1C(=O)N2` [Example 45], the inhibition at 10 µg/mL came to 44%.

With `O=C1c2ccccc2Oc2ccccc2N1CCF` [Example 46], the inhibition at 10 µg/mL is 93%.

In the case of `O=C1c2ccccc2Oc2ccccc2N1C(F)=CI` [Example 47], the inhibition at 10 µg/mL stood at 92%.

With `O=C1c2ccccc2Oc2ccccc2N1CC(F)(F)F` [Example 48], the inhibition at 10 µg/mL worked out at 87%.

In the case of `CN1C(=O)c2ccccc2Sc2ccccc21` [Example 49], the inhibition at 10 µg/mL turned out to be 94%.

In the case of `NC(=O)CN1C(=O)c2ccccc2Sc2ccccc21` [Example 50], the inhibition at 10 µg/mL is 66%.

Still in this assay, the particulars now being: read-out: RT Inhibition (% @ 10 μg/ml).
On to `Cc1ccc2c(c1)Oc1ccc(N)cc1C(=O)N2C` [Example 6, 2-Amino-7,10-Dimethyldibenz[b,f][1,4]Oxazepin-11(10H)-One], for which the inhibition at 10 µg/mL came out at 100%.

As to `C=CCN1C(=O)c2ccccc2Oc2cc(N)ccc21` [Example 29], the inhibition at 10 µg/mL was found to be 89%.

In another assay the test system is HIV-1. The assay is described as follows: Human T Cell Culture Assay (HIV-1 induced syncytia formation in C8166 cells). It counts as cell-based, HIV-1 HTLV-IIIB strain (human C8166 T-cells). Particulars: HTLV-IIIB, four days after virus challenge, compound concentration not given. The protocol:
In order to confirm that compounds which are active in the RT Assay also have the ability to inhibit HIV replication in a living system, a compound of formula I was also tested in the human T-Cell Culture Assay described below.
Assay Theory: Formation of syncytia is a feature of in vitro cultures of CD4+ T-cells infected with HIV-1. In this assay, T-cells are treated with a putative replication inhibiting compound and then infected with HIV-1. After incubation the culture is checked for the formation of syncytia. The absence or reduction is the number of syncytia is used as a measure of the test compound's ability to inhibit HIV replication.
Assay Method: The target cells, designated C8166, are a subclone of human lymphoma cells of T-cell origin and are established at an initial density of 5×10^4 per 100 μl in RPMI 1640 (+10% fetal bovine serum) culture medium in 96 well flat bottom plates. A selected amount of test compound, dissolved in DMSO is included. After 24 hours, 50-100 TCID50 's (the dose that results in induced effect in 50% of test cultures) of the HTLV-IIIB strain of HIV-1 (2) are innoculated into each culture. Control cultures receive compound or virus only. […] The percent inhibition by the test compound is determined by comparison with control values. […]
Consider `CCCN1C(=O)c2ccccc2Oc2ccccc21` [Example 1, 10-Propyl-10H-Dibenz[b,f][1,4]Oxazepin-11-One], for which the “T-Cell Culture Assay (% inhibition)” value is listed as 93%.
